One assay has as its system M. furfur ATCC 44342. It is filed as cell-based, Malassezia furfur. To be noted: for MIC (concentration yielding at least 95% inhibition of fungal growth): ATCC 44342, 24 h. The protocol:
Malassezia furfur ATCC 44342 (CCUG 24230) was obtained from the Department of Bacteriology at Skåne University Hospital. The antifungal activity was tested in an assay described by Lopez-[…] et al., but with some minor modifications. Cells were cultured for 2 days at 37 °C in 10 mL medium containing 4% Bacto Malt Extract (Becton, Dickinson and Company, Md, USA), 1% glucose (VWR international), 1% Tween 80 (Sigma-Aldrich, St. Louis, Mo, USA) and 0.6% Bacto Peptone (Becton, Dickinson and Company, Md, USA). Cells were then washed in 1 mM sodium phosphate buffer, pH 7.4. M. furfur cells were grown in sterile 96-well microtiter plates (Costar, Corning Incorporated, Corning, USA) in a total volume of 100 μL, containing 60 μL of 1 mM sodium phosphate buffer, pH 7.4, 20 μL of culture medium, 10 μL of a 10x stock solution of the synthetic peptides, and a 10x stock solution of the fungal cell suspension, resulting in a final concentration of 1-2 × 10^5 cells/mL. Chloramphenicol was added to each well (16 μg/ml) to avoid contamination. The cells were incubated at 30°C for 24 h. To quantify the fungicidal activity, serial dilutions of the incubation mixture were plated onto agar plates and incubated 72 h at 37°C, and the number of cfu thereafter was determined by counting visible colonies. The minimal inhibitory concentration (MIC) was defined as the concentration which yielded at least 95% inhibition of fungal growth.

For assay [1], the system named is C. parapsilosis ATCC 90018. Nature of the assay: Radial diffusion assay (RDA). It is filed as cell-based, Candida parapsilosis. To be noted: 6 μl of peptide per well (Figure 2(b)). The procedure: Radial diffusion assay (RDA) was performed as described by Lehrer et al. with some minor modifications. Candida was grown for 16 h at 28°C in 10 mL YPD to obtain yeast form organisms. The culture was centrifuged at 2000 ×g for 10 min then washed three times with 10 mM Tris, pH 7.4. A volume containing 1 × 10^5 cfu was added to 5 mL of previously autoclaved, 42°C, underlay agarose gel that contained 1.5 mg of Tryptic Soy Broth (TSB) base, 50 mg of low-electroendosmosistype (Low-EEO) agarose type I (A-6013-25G) (Sigma-Aldrich Inc, St. Louis, Mo, USA), and 1 μL of Tween 20 (0.02% w/v) (Sigma Chemical Co.) dissolved in 10 mM Tris, pH 7.4. The fungi were directly dispensed into the agar and mixed with a vortex mixer for 10 seconds and then quickly poured out into a petri dish, 85 mm in diameter. Wells, 4 mm in diameter, were punched, and each well was then filled up with 6 μL of test sample. After incubation at 35–37°C for 3 h, 5 mL of overlay agarose gel, consisting of 300 mg TSB, 50 mg Low-EEO agarose dissolved in distilled sterilized water, was poured out on top of the underlay gel. The clear zone surrounding the wells, indicating antifungal activity, was measured after 18–24 h of incubation at 28°C. HMWK degradation products were tested for RDA inhibitory effects (Figure 1(b)). […]

Assay [2] relates to C. parapsilosis ATCC 90018. The assay is classed as cell-based, Candida parapsilosis. The protocol:
C. albicans ATCC 90028 and C. parapsilosis ATCC 90018 were obtained from the Department of Bacteriology Lund at Skåne University Hospital. Cells were precultured overnight on Sabouraud-dextrose-agar (Difco, Detroit, Mich) at 28°C, inoculated in 10 mL yeast extract-peptone-dextrose (YPD) broth (Sigma-Aldrich, St. Louis, Mo USA) at 28°C, and grown to mid-logarithmic phase. The cells were washed three times and diluted in 10 mM Tris, pH 7.4. Fifty μL of a suspension containing 1 × 10^6 fungal colony-forming units (cfu)/mL was incubated at 28°C for two hours with rD5, HKH20 at concentrations ranging from 0.3 μM to 60 μM, or the peptides HKH20, GKH17, GKH17WWW, and GKH17WWWWW at a concentration of 30 μM. To quantify the fungicidal activity, serial dilutions of the incubation mixture were plated onto Sabouraud-dextrose-agar plates (Difco, Detroit, Mich) and incubated for 48 h at 28°C, and the number of cfu were thereafter determined by counting visible colonies. Activity of 30 μM HKH20, GKH17, GKH17WWW, and GKH17WWWWW peptides against Candida was also tested in physiological salt conditions (0.15 M NaCl in 10 mM Tris, pH 7.4) in presence of 20% as well as 50% human plasma, and 50% human serum (in 0.15 M NaCl, 10 mM Tris, pH 7.4) (Figure 3). […]

The next assay concerns C. albicans ATCC 90028. Nature of the assay: Radial diffusion assay (RDA), low salt. It is filed as cell-based, Candida albicans. To be noted: 6 μL at 100 μM; for Antifungal activity in RDA: low salt conditions (Figure 2(c)). The procedure:
Radial diffusion assay (RDA) was performed as described by Lehrer et al. with some minor modifications. Candida was grown for 16 h at 28°C in 10 mL YPD to obtain yeast form organisms. The culture was centrifuged at 2000 ×g for 10 min then washed three times with 10 mM Tris, pH 7.4. A volume containing 1 × 10^5 cfu was added to 5 mL of previously autoclaved, 42°C, underlay agarose gel that contained 1.5 mg of Tryptic Soy Broth (TSB) base, 50 mg of low-electroendosmosistype (Low-EEO) agarose type I (A-6013-25G) (Sigma-Aldrich Inc, St. Louis, Mo, USA), and 1 μL of Tween 20 (0.02% w/v) (Sigma Chemical Co.) dissolved in 10 mM Tris, pH 7.4. The fungi were directly dispensed into the agar and mixed with a vortex mixer for 10 seconds and then quickly poured out into a petri dish, 85 mm in diameter. Wells, 4 mm in diameter, were punched, and each well was then filled up with 6 μL of test sample. After incubation at 35–37°C for 3 h, 5 mL of overlay agarose gel, consisting of 300 mg TSB, 50 mg Low-EEO agarose dissolved in distilled sterilized water, was poured out on top of the underlay gel. The clear zone surrounding the wells, indicating antifungal activity, was measured after 18–24 h of incubation at 28°C. HMWK degradation products were tested for RDA inhibitory effects (Figure 1(b)). Human leukocyte (neutrophil) elastase (HLE) and freeze-thaw-disrupted polymorphonuclear neutrophils (PMNs) at equivalent concentrations as used in the HMWK degradation were incubated at 37°C for 60 minutes and added as controls (Figure 1(b)).

Assay [3] can be described thus: Liposome leakage assay (carboxyfluorescein release). The conditions noted are these: DOPC/sterol 60/40 mol/mol, 10 μM lipid in 10 mM Tris, 5 mM glucose, pH 7.4, 37°C, CF fluorescence at 520 nm, at least duplicate (Figure 4). An excerpt: The liposomes investigated were zwitterionic DOPC/cholesterol (60/40 mol/mol) or DOPC/ergosterol (60/40 mol/mol). DOPC (1,2-Dioleoyl-sn-Glycero-3-Phosphatidylcholine) was from Avanti Polar Lipids (Alabaster, USA) and of >99% purity, while ergosterol and cholesterol (>99% purity) were from Sigma-Aldrich (St. Louis, USA). Due to the long, symmetric, and unsaturated acyl chains of DOPC, several methodological advantages are reached. In particular, membrane cohesion is good, which facilitates very stable unilamellar liposomes, allowing detailed values on leakage to be obtained. The lipid mixtures were dissolved in chloroform, after which solvent was removed by evaporation under vacuum overnight. Subsequently, 10 mM Tris buffer, pH 7.4, was added together with 0.1 M carboxyfluorescein (CF) (Sigma, St. Louis, USA). After hydration, the lipid mixture was subjected to eight freeze-thaw cycles consisting of freezing in liquid nitrogen and heated to 60°C. Unilamellar liposomes of about Ø140 nm were generated by multiple extrusions through polycarbonate filters (pore size 100 nm) mounted in a LipoFast miniextruder (Avestin, Ottawa, Canada) at 22°C. […] CF release from the liposomes was determined by monitoring the emitted fluorescence at 520 nm from a liposome dispersion (10 μM lipid in 10 mM Tris, 5 mM glucose, pH 7.4). […]

Peptide text beside a SMILES is read from it.

As for `NCCCC[C@H](NC(=O)[C@H](Cc1c[nH]c2ccccc12)NC(=O)CNC(=O)[C@H](CC(N)=O)NC(=O)[C@H](Cc1c[nH]cn1)NC(=O)[C@H](CCCCN)NC(=O)CNC(=O)[C@H](CC(N)=O)NC(=O)[C@H](CCCCN)NC(=O)[C@H](CCCCN)NC(=O)CNC(=O)[C@H](CCCCN)NC(=O)[C@H](CC(N)=O)NC(=O)[C@H](CCCCN)NC(=O)[C@H](Cc1c[nH]cn1)NC(=O)[C@H](CCCCN)NC(=O)CN)C(=O)O` [GKH17] (H-GKHKNKGKKNGKHNGWK-OH), the “MIC (concentration yielding at least 95% inhibition of fungal growth)” value in the assay with M. furfur ATCC 44342 fell in the range of 5 to 10 µM.
Turning to `NCCCC[C@H](NC(=O)CNC(=O)[C@H](CC(N)=O)NC(=O)[C@H](CCCCN)NC(=O)[C@H](CCCCN)NC(=O)CNC(=O)[C@H](CCCCN)NC(=O)[C@H](CC(N)=O)NC(=O)[C@H](CCCCN)NC(=O)[C@H](Cc1c[nH]cn1)NC(=O)[C@H](CCCCN)NC(=O)CNC(=O)[C@H](Cc1c[nH]cn1)NC(=O)CNC(=O)[C@H](Cc1c[nH]cn1)NC(=O)CNC(=O)[C@H](Cc1c[nH]cn1)NC(=O)[C@H](CCCCN)NC(=O)[C@@H](N)Cc1c[nH]cn1)C(=O)N[C@@H](Cc1c[nH]cn1)C(=O)O` [HKH20] (H-HKHGHGHGKHKNKGKKNGKH-OH; N-terminus and C-terminus assumed), in assay [1], the “Inhibitory activity in RDA compared with reference peptides” value is recorded as “significantly higher inhibitory activity on Candida, when compared with LL-37”. In addition, the “Antifungal activity in viable count assay” value in assay [2] (0.3 μM to 60 μM, 1 × 10^6 cfu/mL, 2 h at 28°C, 10 mM Tris pH 7.4 (Figure 2(a))) was “potent antifungal activity”. Further, the “Candida cells killed (time-dependent killing)” value in assay [2] (ATCC 90018, 48 h, 30 μM, pH 7.4) is given as above 80%. Further, in the assay with C. albicans ATCC 90028, the “Antifungal activity in RDA” value is “showed antifungal activity”. Further, in the assay with C. albicans ATCC 90028 (low salt, P < 0.05 (Figure 2(c))), the “Inhibitory activity in RDA in comparison to LL-37” value is recorded as “significantly more potent inhibitory activity on Candida, in comparison to LL-37”. In addition, in the assay on M. furfur ATCC 44342 (10 μM or 30 μM, 24 h (Figure 2(e))), the “Antifungal activity against M. furfur at fixed concentrations” value is “antifungal at 10 and 30 μM”. Further, the “MIC (concentration yielding at least 95% inhibition of fungal growth)” value in the assay on M. furfur ATCC 44342 is 2.5 to 5 µM.
For the compound GGHVLDHGHKHKHGHGHGKH [GGH20], the “Antifungal activity in RDA” value in the assay on C. albicans ATCC 90028 is recorded as “showed antifungal activity”.
As for “GKHKNKGKKNGKHNGWKWWW [GKH17WWW, GKH17 hydrophobically end-tagged with three W residues at the C-terminal]”, the “Membrane-disruptive potency, ergosterol- versus cholesterol-containing liposomes” value in assay [3] was “higher for ergosterol-containing liposomes than for cholesterol-containing ones”.

These data come from article PMC3173955, “Antifungal Activities of Peptides Derived from Domain 5 of High-Molecular-Weight Kininogen” (International Journal of Peptides, 2011).
